Residues, ends and D or L forms follow the SMILES beside them. *: point of attachment. Bz = O=C(c1ccccc1)*
| melting point | Structure (SMILES) |
| --- | --- |
| 188 to 190 °C | CCOC(=O)c1cn(NC=O)c2c(OCc3ccccc3)c(F)c(F)cc2c1=O |
| 138 to 140 °C | CC(C)c1ccc(C2(NC(=O)c3ccccc3)C(=O)c3ccccc3C2=O)c(OC(=O)c2ccccc2)c1 |
| 160 to 162 °C | O=C(NCc1ccncc1)c1ccnc(N2CCN(CC3CC3)C2=O)c1 |
| 92 to 100 °C | CC(C)NCCCOc1ccc(O)cc1 |
| 192 to 194 °C | COc1ccc(N2CCN(c3c(C)c(C)c4c(c3C(C)C)CC(C)(C)O4)CC2)cc1 |
| 133 to 134 °C | COc1cc(C=CC(=O)Nc2c(CCO)nc3c(C)cc(C)cc3c2-c2ccccc2Cl)ccc1O |
| 137 to 138 °C | Cc1oc(-c2ccccc2)nc1COc1ccc(COc2cncc(CC#N)c2)cc1 |
| 112 to 113 °C | CCOC(=O)/C=C/c1cnn(Cc2ccc(OCc3nc(-c4ccccc4)oc3C)cc2)c1 |
| 188 to 190 °C | COC(=O)C(Cc1ccc(O)cc1)NC(=O)C(Cc1ccccc1)NC(=O)c1ccccc1 (stereo not drawn) (Bz-Phe-Tyr-OMe; configuration not given here) |
| > 275 °C | CS(=O)(=O)c1ccc(-c2cc(-c3nc4ccccc4c(=O)n3-c3ccccc3Cl)sc2N2CCOCC2)cc1 |
| 180 to 182 °C | O=C(NO)c1ccc(-c2ccc3nnn(Cc4ccc5ncccc5c4)c3n2)cc1F |
| 115 to 117 °C | CC(C)(Br)c1ccc2occ(C#N)c(=O)c2c1 |
| 158 to 159 °C | CN1CCC(c2cccc(F)c2)(C(C)(C)O)CC1 |
| 158 to 159 °C | Cc1nn(CCC(C)O)c(-c2ccc(F)cc2)c1-c1ccc2c(c1)NC(=O)CO2 (stereo unspecified) |
| 186 °C | O=C(Cl)c1ccc2cc(C(=O)Cl)ccc2c1 |
| 64 to 65 °C | CC(C)(C)C(=O)OCCCCCCOc1ccc(Nc2ccccc2)cc1 |
| 114 to 117 °C | CCc1cnc2c(c1)ON(C(C)(C(N)=O)C(C)C)O2 (stereo unspecified) |
| 147 to 149 °C | CCOC(=O)c1ccc(NC(=O)Nc2c(OC)ccc3c2C(C)(C)COC3(C)C)cc1 |
| 244 to 245 °C | Nc1c(-c2ccc(-c3ccccc3)cc2)nc2c(Cl)cc(Cl)cc2c1C(=O)O |
| 193 to 196 °C | Cc1nn(CC(F)CO)c(-c2ccc(F)cc2)c1-c1ccc2c(c1)NC(=O)CO2 (stereo unspecified) |
| 227 to 228 °C | CC1(C(=O)O)CCC(=O)c2cc(C3CCCCC3)c(Cl)cc21 (stereo unspecified) |
| 93 to 94 °C | O=[N+]([O-])c1ccc(F)c(CNCCO)c1 |
| 167 °C | COc1cc(O)c(C(=O)C=Cc2ccc(Cl)cc2)c(OC)c1 |

| melting point | Structure (SMILES) |
| --- | --- |
| 210 °C | Cc1cc2ccccc2cc1C1CC(=O)C=C(O)C1 (stereo unspecified) |
| 79 to 81 °C | CCOC(=O)c1c[nH]n(Cc2ccccc2)c1=O |
| 215 to 217 °C | COc1ccc2nc(NC(=O)C(CC3CCCC3)c3ccc(S(=O)(=O)N4CCN(C(C)=O)CC4)cc3)sc2n1 (stereo unspecified) |
| 203 to 204 °C | Cc1ccc(-c2[nH]c(-c3ccccc3[N+](=O)[O-])nc2C(=O)Nc2nccs2)cc1 |
| 215 to 218 °C | CC(C)(C)c1csc(NC(=O)c2ccn3c(=O)c(/C=C/C(=O)O)c(N4CCC(O)CC4)nc3c2)n1 |
| 39 to 41 °C | COC(=O)CCCCNC(=O)C(CS)Cc1ccccc1 (stereo unspecified) |
| 161 to 162 °C | Cc1cc(SCc2ccc(-c3ccc(C(F)(F)F)cc3)cc2)c(Cl)cc1OCC(=O)O |
| 50 to 52 °C | CCCCOc1cc(=O)n(CCCC)c2ccccc12 |
| 232 to 236 °C | O=C(Cn1c(-c2ccc(Cl)cc2)nc2cccnc21)Nc1ccccc1Cl |
| 222 °C | O=C(N[C@H]1CC[C@H](CCN2CCN(c3nccc4c3CCO4)CC2)CC1)c1ccc(N2CCOCC2)nc1 |
| 185 to 186 °C | Cc1noc(NC(=O)N2CCN(c3cc(-c4cccc(F)c4)ncn3)CC2)c1C |
| 176 to 178 °C | CC(=O)NCC1CN(c2cc(F)c(N3CCC(n4ccnn4)C(F)C3)c(F)c2)C(=O)O1 (stereo unspecified) |
| 199 to 203 °C | COc1cc2c(cc1OC)CCC(/C=C/C(=N)NO)=C2 |
| 150 to 152 °C | Cc1ccc(C(=O)NC2CCN(CCCCl)CC2)cc1 |
| 84 to 86 °C | CC1(N)CN(C(c2ccccc2)c2ccccc2)C1 |
| 111 to 112 °C | COc1cc(COc2nn(-c3ccccc3)cc2CC2SC(=O)N(C)C2=O)ccc1OCc1nc(-c2ccco2)oc1C (stereo unspecified) |
| 88.5 to 90.5 °C | CCN(C)C(=O)N(C)C(=O)Nc1ccccc1 |
| 138 to 141 °C | O=C(COc1ccc(CN2CCOCC2)cc1)N1CCN(c2ccc(N3C[C@H](CNC(=S)C4CC4)OC3=O)cc2F)CC1 |
| 184 °C | O=C1c2cccc3cc4ccccc4c(c23)C(=O)N1CCCNCCCN1C(=O)c2cccc3cc4ccccc4c(c23)C1=O |
| 245 to 247 °C | O=C(Nc1ccc(C(=O)Nc2ccc(Br)cn2)cn1)c1ccc(Br)nc1 |
| 225 °C | O=C(O)c1cnn2c(C(F)(F)F)cc(-c3ccc(OC(F)(F)F)cc3)nc12 |
| 140 to 142 °C | CS(=O)(=O)c1ccc(-c2c(Cl)c3cccccc-3c2-c2ccccc2)cc1 |
| 102 to 106 °C | CCCC(=O)C1=C(O)CC(c2ccc(OC)c(NC(C)=O)c2)CC1=O (stereo unspecified) |

| melting point | Structure (SMILES) |
| --- | --- |
| 92 to 93.5 °C | CS(=O)c1ccc(Oc2ccc(Cl)c(Cl)c2)cc1 (stereo unspecified) |
| 126 to 128 °C | Fc1ccc(N2CCN(Cc3cn4cc(Cl)cc(Cl)c4n3)CC2)cc1 |
| > 200 °C | O=C(O)Cc1c(C(=O)O)c2cc(Oc3ccc(OC(F)(F)F)cc3)ccc2n1-c1ccc(N2CCCCC2)cc1 |
| 169 to 175 °C | Cc1cc(-c2cccc(S(F)(F)(F)(F)F)c2)c(S(C)(=O)=O)cc1C(=O)NC(=N)N |
| 74 °C | Nc1cc(Cl)cnc1F |
| 43.6 to 45.6 °C | NC1CCn2c(CCc3ccccc3)nc3cccc1c32 (stereo unspecified) |
| 167 to 168 °C | CC(=O)OCC1OC(Cl)C(N=[N+]=[N-])C(OC(C)=O)C1OC1OC(COC(C)=O)C(OC(C)=O)C(OC(C)=O)C1OC(C)=O (stereo unspecified) |
| 116 to 117 °C | O=C1NC(=O)C(CC#Cc2ccc(Cl)cc2)(Sc2ccc(F)cc2)S1 (stereo unspecified) |
| 264 to 265 °C | Cc1nc2c(-c3ccc(N4CCN(C)CC4)cc3)cnn2c(N)c1-c1ccc(F)c(Cl)c1 |
| 105 to 107 °C | CC(=O)Nc1ncsc1-c1ccccc1 |
| 222 to 224 °C | COc1ccc(C2(C)C(=O)Nc3cc(OC)cc(Cl)c3C2=O)cc1 (stereo unspecified) |
| 137 to 139 °C | C=CCSC1=C(C(=O)OCc2ccc([N+](=O)[O-])cc2)N2C(=O)[C@@H]([C@H](C)O)[C@H]2C1 |
| 143 to 144 °C | FC(F)(F)Sc1ccc2c(c1)C(=C1CCN(CC3CC3)CC1)c1ccccc1C=C2 |
| 137 to 142 °C | COC(=O)CON1C(=O)c2ccccc2C1=O |
| 94 to 96 °C | CN(C)CC1CNc2ccc(Cl)cc2C1 (stereo unspecified) |
| 278 to 280 °C | CN1CCN(c2ccc3c(=O)c(C(=O)O)cn4c3c2CCC4)CC1 |
| 112 °C | O=[N+]([O-])c1ccc(Cl)cc1Nc1cccc(Cl)c1 |
| 153 to 155 °C | COc1cc(Br)c(Br)cc1N1CCN(CCCNc2c(C)c(=O)n(C)c(=O)n2C)CC1 |
| 203 °C | CCN(CC)C(=O)C1CCN(Cc2cnc3cc(NC(=O)c4ccc(-c5ccc(F)cc5)cc4)c(C)cc3c2)CC1 |
| 154 to 155 °C | Nc1ccccc1NC(=O)c1ccc(CNC(=O)COc2cccnc2)cc1 |
| 174 to 180 °C | Cn1cc(C(=O)NS(=O)(=O)c2cccs2)cn1 |
| 44 to 45 °C | Cc1cncc(C)c1-c1c(C)cc(N=C(c2ccccc2)c2ccccc2)cc1C |
| 93 °C | O=S(=O)(NN1CCCCC1)c1ccc(S)cc1 |

| melting point | Structure (SMILES) |
| --- | --- |
| 161 to 163 °C | N#CNC(=N)NCCN1CCC(C2(c3ccc(F)cc3)OCCO2)CC1 |
| 118 to 120 °C | Cc1cc(N2CCN(Cc3ccc(N)cc3)C2=O)sc1C(=O)NCc1cccnc1 |
| 136 to 138 °C | Nc1ccc(-n2cc(C(F)(F)F)ccc2=O)c(Cl)c1 |
| 138 to 142 °C | CN1CCC(=C2c3cc(Br)ccc3C=Cn3cccc32)CC1 |
| 209 to 210 °C | Cc1csc(-c2ccc3c(ccn3S(=O)(=O)c3ccccc3)c2)n1 |
| 211 to 212 °C | COc1ccnc(CCc2nc3cc(-c4ccc(S(=O)(=O)N(C)C)c(F)c4)cnc3[nH]2)c1 |
| 129 to 131 °C | N#CSCc1ccc(C(=O)c2ccc(Cl)cc2)cc1 |
| 190 °C | COc1ccc2ccc(N3C(=O)c4ccccc4C3OC(=O)CCCNC(C)=O)nc2n1 (stereo unspecified) |
| 119 to 121 °C | CCOC(=O)C(=CNC1CC1)C(=O)c1c(F)cc(F)c(F)c1N(Cc1ccccc1)C(C)=O |
| 61 to 62 °C | CCOC(=O)c1cnn(-c2ccc(C)cc2)n1 |
| 137 °C | CC#CC(O)(Cn1cncn1)c1ccc(Oc2ccc(Cl)cc2)cc1C(F)(F)F (stereo unspecified) |
| 97 to 98 °C | COC(=O)c1ccc(/C=C(\C)c2ccc3c(c2)SCCCN3C)cc1 |
| 126 to 136 °C | COc1ccc(C(=O)Nc2ccccc2CC(C)C2CCCCN2C)cc1 (stereo unspecified) |
| 154 to 155 °C | N#CC(c1ccccc1)(c1ccccc1)C1CCN(C(=O)Oc2ccccc2)C1 (stereo unspecified) |
| 90 to 91 °C | CC(C)c1cccc(Cl)c1Oc1nnc(Cl)cc1Cl |
| 103 to 106 °C | CC1(C)[C@@H](C=C(Cl)c2ccc(Cl)cc2)[C@@H]1C(=O)O (relative stereo) |
| 178 to 179 °C | CC(=O)Oc1ccc(-c2c3ccccc3c(Br)c3sc4ccccc4c23)cc1OC(C)=O |
| 209 to 219 °C | CSc1nc(-c2ccc(C#N)cc2)cn1-c1ccc(C#N)cc1 |
| 169 to 170 °C | Oc1cc2c(cc1C13CC4CC(CC(C4)C1)C3)CCCC2 |
| 107 to 108 °C | Cc1cccc(CC(Nc2ccccc2)C(=O)NC(C#N)COCc2ccc(F)c(C(=O)O)c2)c1 (stereo unspecified) |

| Structure (SMILES) | melting point |
| --- | --- |
| CN1CC(CCCl)Cc2ncccc2C1=S (stereo unspecified) | 110 to 120 °C |
| CCCCCCc1ccc(NC2=NCCS2)cc1 | 77 to 79 °C |
| CN(C)Cc1nnc(CN(C)C)n1-c1ccc(Cl)cc1C(=O)c1ccccc1 | 148 to 152 °C |
| Cc1ccc(S(=O)(=O)C(CCl)Sc2cccc([N+](=O)[O-])c2)cc1 (stereo unspecified) | 92 to 101 °C |
| CC1(C)C2CC[C@@]1(N1CCOCC1)C(=O)C2 | 89.5 to 90.5 °C |
| Nc1cc(N2CCNCC2)c(F)cc1[N+](=O)[O-] | 120 to 121 °C |
| OCCN1C2CCC1CC(c1ccc3ccccc3c1)C2 (stereo unspecified) | 84 to 88 °C |
